{"source": "patent US10934280B2", "about": "“Condensed thiophene derivatives useful as NaPi-IIb inhibitors” (Eli Lilly and Company, priority 2016, dated 2021)", "key": {"NaPi-IIb": {"target": "T1, NaPi-IIb (Mus musculus, UniProt Q9DBP0)", "T1 construct": "from tissue; host or cells: living C57Bl6 mice (gastrointestinal tract)", "T1 sequence (Q9DBP0 1-697)": "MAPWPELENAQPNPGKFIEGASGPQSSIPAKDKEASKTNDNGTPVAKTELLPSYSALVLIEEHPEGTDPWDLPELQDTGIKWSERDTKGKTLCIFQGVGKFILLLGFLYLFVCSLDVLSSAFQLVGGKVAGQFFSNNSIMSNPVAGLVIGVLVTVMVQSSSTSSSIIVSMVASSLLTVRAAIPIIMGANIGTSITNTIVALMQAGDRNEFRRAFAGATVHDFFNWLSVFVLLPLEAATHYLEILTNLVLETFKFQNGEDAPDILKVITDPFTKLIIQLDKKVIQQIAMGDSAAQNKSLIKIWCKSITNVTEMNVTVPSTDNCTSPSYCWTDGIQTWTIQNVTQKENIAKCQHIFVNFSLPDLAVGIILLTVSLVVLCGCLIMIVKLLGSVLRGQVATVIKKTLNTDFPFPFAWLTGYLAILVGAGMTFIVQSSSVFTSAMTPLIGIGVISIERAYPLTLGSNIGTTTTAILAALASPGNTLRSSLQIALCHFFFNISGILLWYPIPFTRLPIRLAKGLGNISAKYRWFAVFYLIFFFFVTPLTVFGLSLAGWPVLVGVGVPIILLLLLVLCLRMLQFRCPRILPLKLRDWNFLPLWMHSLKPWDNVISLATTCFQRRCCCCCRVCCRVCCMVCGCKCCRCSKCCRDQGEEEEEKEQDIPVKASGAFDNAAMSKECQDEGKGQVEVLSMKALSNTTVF", "test": "Inhibition of NaPi-IIb in vivo: plasma counts after oral radioactive phosphate in mice", "protocol": "For test article and vehicle control preparation, add vehicle, 20% hydroxypropyl-beta-cyclodextrin (HPBCD) in water, to the test article. Sonicate to reduce particle size in an ultrasonic water bath as needed. If necessary, use a polytron to break down any visible particles in test article solution. The pH of the vehicle control is adjusted to 8.0 to 8.5 with 1N NaOH.\nRadioactive phosphate preparation: Prepare a 16.25 mM Na2HPO4 solution using 0.9% saline as the vehicle. Mix until a clear solution is formed. Adjust pH to approximately 7.4. Filter using a sterile 0.2 μm polyethersulfone membrane. For the final preparation of the radioactive phosphate dosing solution, add 0.5 μl of stock H3^3PO4 per 1 mL of Na2HPO4. Mix thoroughly then sterile filter the H3^33PO4+Na2HPO4 solution using a 0.2 μm polyethersulfone membrane prior to dosing. Measure the radioactivity of each sample with the scintillation counter. If the DPMs are between 100,000 and 150,000 proceed with dosing.\nIn-vivo protocol: Male C57B16 male mice at the age of about 8-9 wks old are fasted for 16 hrs the day before the study. They are assigned to treatment groups based on body weight on the day of study. Mice are dosed orally with either the test article, prepared as described above, or vehicle control at a 10 mis/kg dose volume. Fifteen minutes later, the radioactive phosphate dosing solution is given by oral gavage. Fifteen minutes later, blood is collected by orbital bleed. Plasma is prepared and 50 μl of EDTA plasma from each mouse is mixed with 10 ml of scintillation fluid and the counts determined by scintillation counting. The effect of the test article is determined by comparing the counts in the plasma from the test article treated animals to counts in the plasma of the vehicle control treated animals [Percent Inhibition=[…]]. Percent inhibition is measured at 30 minutes post administration of the compound or vehicle, and at 15 minutes post administration of the labelled phosphate. Percent Inhibition for indicated Examples are illustrated in Table 3 below.\nAlternative vehicles, for example poly-1-vinylpyrrolidone-co-vinyl acetate (PVP-VA), at varying concentrations, may be used. Example 1 can be assayed in PVP-VA, and for this study the compound is formulated as described in the solid dispersion preparation of Example 1, followed by dissolving in water then dosing by oral gavage. The vehicle control is water with varying concentrations of PVP-VA, matching the concentration found in the highest dose of Example 1, the lowest dose of Example 1, and an intermediate dose of Example 1. No effect of varying PVP-VA on the uptake of radiolabeled phosphate is observed over several studies, and thus all the vehicles are averaged to calculate percent inhibition."}, "gastric emptying": {"tested_on": "gastric emptying", "test": "Effect on gastric emptying in vivo (radiolabeled phosphate recovered from stomach)", "design": "species or system mice", "protocol": "The effect of a test compound on gastric emptying can be assessed by dosing the compound and radiolabeled phosphate in a manner similar to that used to assess a compound's ability to inhibit NaPi-IIb in vivo. After bleeding the mice, they were sacrificed and their stomachs harvested. The harvested stomachs are digested in 10 ml of 1N NaOH overnight, and the recovered radiolabeled phosphate DPMs determined by scintillation counting. The compound mediated effect on the rate of gastric emptying is determined by comparing the dpms in the stomach of animals treated with compound, to that of animals treated with vehicle."}, "normal rats": {"tested_on": "normal rats", "test": "Four-day in vivo tolerability/toxicity in normal rats", "settings": "administered in vivo to normal rats for four days", "from_the_text": "Compounds of the invention, for instance Example 1, show advantageous pharmacological properties, such as potency, in vivo distribution, in vivo efficacy, and favorable lack of toxicity in preclinical testing."}, "murine NaPi-IIb": {"target": "T2, murine NaPi-IIb (Mus musculus, UniProt Q9DBP0)", "T2 construct": "expressed in transfected cells", "T2 sequence (Q9DBP0 1-697)": "T1 sequence (Q9DBP0 1-697)", "test": "Inhibition of 33P uptake in mouse NaPi-IIb T-REX-CHO stable cell line", "format": "cell-based", "settings": "60 min at RT, geometric mean (SD), read-out: m NaPi-IIb rel IC50 (nM), (SD)", "protocol": "Inhibition of ^33P uptake is measured in human and mouse NaPi-IIb T-REX™-CHO stable cell lines. cDNA for NaPi-IIb is subcloned in plasmid SLC34A2 pcDNA5/TO (human) and SLC34A2 pcDNA5/TO (mouse) and stable cell lines are generated from clonal isolation for both human and mouse respectively. Mouse and human stable lines are maintained in continuous culture in growth media (Dulbecco's Modified Eagle Medium: Nutrient Mixture F-12 (3:1), 10% Heat Inactivated FBS, 1% penicillin/streptomycin/FUNGIEZONE® (HYCLONE™), 20 mM HEPES, 250 μg/mL hygromycin, 5 μg/mL blasticidin). Cells are harvested from T225 cell culture flasks (CORNING®) using 0.25% Trypsin, and plated in 96 well CYTOSTAR-T™ scintillating microplates (Amersham Systems) at 40,000 cells/well in 100 μL of growth media plus 100 ng/mL of tetracycline. Cell plates are incubated overnight at 37° C. and 5% C02. The next day, compounds are serially diluted using one to three dilutions in 100% DMSO. Cell plates may remain in the incubator until ready to be assayed. A cell plate is removed from the incubator and media removed. Cells are washed 3 times with 200 μL assay buffer (137 mM NaCl, 5.4 mM KCl, 2.8 mM CaCl2), 1.2 mM MgSO4, and 14 mM Tris-HCl buffer, pH˜7.5), removing buffer in between washes. Serially diluted compounds in DMSO are further diluted 50 fold in assay buffer and 50 μL added to the CYTOSTAR-T™ assay plate, immediately followed by the addition of 50 μL of ^33P solution (PERKIN-ELMER®, Walton, Mass.; 0.05 μCi/50 μL). CYTOSTAR-T™ assay plates are covered with foil to protect from light and incubated for 60 min at RT. After the 60 min incubation, 100 μL of a stop solution (assay buffer+400 μM Phloretin) is added to the assay plate to stop ^33P uptake. The plate is immediately read on a Wallac MICROBETA® Trilux liquid scintillation counter and luminometer after stop solution is added with 1 minute count per well. Each plate may be processed separately and staggered in time so there may be no delay in counting after stop solution is added. Percent inhibition at all concentrations tested (final assay concentrations 100-0.005 μM) are calculated relative to 1% DMSO (minimum effect), and the effect of 100 μM of a fully efficacious NaPi-IIb inhibitor (maximum effect). IC50 values were calculated using a 4 parameter logistic curve fitting equation. The numbers presented are the geometric means with standard deviation (SD) calculated where n is the number of runs. Thus. Table 1 describes the relative IC50 values for Examples 1-28 against human NaPi-IIb and murine NaPi-IIb, respectively."}, "[1]": {"settings": "5 mg/kg oral, 20% HPBCD vehicle, fasted male mice, 30 min post compound, 15 min post labelled phosphate"}}, "note": "Counter-ions that a name gives are not always drawn.", "data": [{"smiles": "CC1(C)CN(C(=O)NCCCCO)CCN1Cc1cccc(C(=O)Nc2sc3c(c2C(=O)Nc2cc(F)c(CCc4ccc(C(=O)O)cc4)c(F)c2)CCCC3)c1", "note": "[Example 1, 4-[2-[2,6-difluoro-4-[[2-[[3-[[4-(4-hydroxybutylcarbamoyl)-2,2-dimethyl-piperazin-1-yl]methyl]benzoyl]amino]-4,5,6,7-tetrahydrobenzothiophene-3-carbonyl]amino]phenyl]ethyl]benzoic Acid]", "values": [{"measurement": "Percent Inhibition", "setting": "NaPi-IIb; 0.03 mg/kg oral gavage, PVP-VA solid dispersion formulation in water, mice", "result": 0.75, "unit": "%"}, {"measurement": "Percent Inhibition", "setting": "NaPi-IIb; 0.1 mg/kg oral gavage, PVP-VA solid dispersion formulation in water, mice", "result": 30.61, "unit": "%"}, {"measurement": "Percent Inhibition", "setting": "NaPi-IIb; 0.3 mg/kg oral gavage, PVP-VA solid dispersion formulation in water, mice", "result": 51.21, "unit": "%"}, {"measurement": "Percent Inhibition", "setting": "NaPi-IIb; 1 mg/kg oral gavage, PVP-VA solid dispersion formulation in water, mice", "result": 66.90, "unit": "%"}, {"measurement": "Percent Inhibition", "setting": "NaPi-IIb; 3 mg/kg oral gavage, PVP-VA solid dispersion formulation in water, mice", "result": 68.71, "unit": "%"}, {"measurement": "Percent Inhibition", "setting": "NaPi-IIb; 10 mg/kg oral gavage, PVP-VA solid dispersion formulation in water, mice", "result": 75.64, "unit": "%"}, {"measurement": "Percent Inhibition", "setting": "NaPi-IIb; 30 mg/kg oral gavage, PVP-VA solid dispersion formulation in water, mice", "result": 75.83, "unit": "%"}, {"measurement": "margin of NaPi-IIb inhibition with respect to inhibition of in vivo gastric emptying", "setting": "gastric emptying", "result": "surprisingly advantageous margin"}, {"measurement": "tolerability", "setting": "normal rats", "result": "generally well tolerated"}, {"measurement": "toxicity", "setting": "normal rats", "result": "advantageous lack of toxicity"}]}, {"smiles": "COCCN(CCOC)S(=O)(=O)N1CCN(Cc2cccc(C(=O)Nc3sc4c(c3C(=O)Nc3cc(F)c(CCc5ccc(C(=O)O)cc5)c(F)c3)CCCC4)c2)C(C)(C)C1", "note": "[Example 3, 4-[2-[4-[[2-[[3-[[4-[bis(2-methoxyethyl)sulfamoyl]-2,2-dimethyl-piperazin-1-yl]methyl]benzoyl]amino]-4,5,6,7-tetrahydrobenzothiophene-3-carbonyl]amino]-2,6-difluoro-phenyl]ethyl]benzoic Acid]", "values": [{"measurement": "IC50", "setting": "murine NaPi-IIb", "result": 40.9, "unit": "nM"}]}, {"smiles": "CC1(C)CN(CCCC(=O)O)CCN1Cc1cccc(C(=O)Nc2sc3c(c2C(=O)Nc2cc(F)c(CCc4ccc(C(=O)O)cc4)c(F)c2)CCCC3)c1", "note": "[Example 4, 4-[2-[4-[[2-[[3-[[4-(3-carboxypropyl)-2,2-dimethyl-piperazin-1-yl]methyl]benzoyl]amino]-4,5,6,7-tetrahydrobenzothiophene-3-carbonyl]amino]-2,6-difluoro-phenyl]ethyl]benzoic Acid]", "values": [{"measurement": "Percent Inhibition", "setting": "NaPi-IIb; [1]", "result": 52, "unit": "%"}]}, {"smiles": "CC1(C)CN(C(=O)CN)CCN1Cc1cccc(C(=O)Nc2sc3c(c2C(=O)Nc2cc(F)c(CCc4ccc(C(=O)O)cc4)c(F)c2)CCCC3)c1", "note": "[Example 6, 4-[2-[4-[[2-[[3-[[4-(2-aminoacetyl)-2,2-dimethyl-piperazin-1-yl]methyl]benzoyl]amino]-4,5,6,7-tetrahydrobenzothiophene-3-carbonyl]amino]-2,6-difluoro-phenyl]ethyl]benzoic Acid]", "values": [{"measurement": "Percent Inhibition", "setting": "NaPi-IIb; [1]", "result": 62, "unit": "%"}]}, {"smiles": "COCCCCNC(=O)N1CCN(Cc2cccc(C(=O)Nc3sc4c(c3C(=O)Nc3cc(F)c(CCc5ccc(C(=O)O)cc5)c(F)c3)CCCC4)c2)C(C)(C)C1", "note": "[Example 7, 4-[2-[2,6-difluoro-4-[[2-[[3-[[4-(4-methoxybutylcarbamoyl)-2,2-dimethyl-piperazin-1-yl]methyl]benzoyl]amino]-4,5,6,7-tetrahydrobenzothiophene-3-carbonyl]amino]phenyl]ethyl]benzoic Acid]", "values": [{"measurement": "IC50", "setting": "murine NaPi-IIb", "result": 8.56, "unit": "nM"}]}, {"smiles": "CC1(C)CN(C(=O)CCC(=O)O)CCN1Cc1cccc(C(=O)Nc2sc3c(c2C(=O)Nc2cc(F)c(CCc4ccc(C(N)=O)cc4)c(F)c2)CCCC3)c1", "note": "[Example 8, 4-[4-[[3-[[3-[[4-[2-(4-carbamoylphenyl)ethyl]-3,5-difluoro-phenyl]carbamoyl]-4,5,6,7-tetrahydrobenzothiophen-2-yl]carbamoyl]phenyl]methyl]-3,3-dimethyl-piperazin-1-yl]-4-oxo-butanoic Acid]", "values": [{"measurement": "Percent Inhibition", "setting": "NaPi-IIb; [1]", "result": 60, "unit": "%"}]}, {"smiles": "CNC(=O)N1C2CCC1CN(Cc1cccc(C(=O)Nc3sc4ccccc4c3C(=O)Nc3cc(F)c(CCc4ccc(C(=O)O)cc4)c(F)c3)c1)C2", "note": "[Example 13, 4-[2-[2,6-difluoro-4-[[2-[[3-[[8-(methylcarbamoyl)-3,8-diazabicyclo[3.2.1]octan-3-yl]methyl]benzoyl]amino]benzothiophene-3-carbonyl]amino]phenyl]ethyl]benzoic Acid, Formic Acid Salt]", "values": [{"measurement": "IC50", "setting": "murine NaPi-IIb", "result": 9, "unit": "nM"}]}]}
